# In patent EP4707284A1, “HETEROCYCLIC COMPOUND AND USE THEREOF” (Otsuka Pharmaceutical Co., Ltd., priority 2023, dated 2024):
# Format: physicochemical
# Details: Tris-hydrochloric acid buffer (pH 7.5) 50 mmol/L, magnesium chloride 5 mmol/L, evaluation compound 1 µmol/L, 37°C, 60 minutes, average of duplicate
# Protocol: The conversion from the evaluation compounds to brexpiprazole in a buffer (i.e., the stability of the evaluation compounds) was evaluated.
# The Example 1 compound was dissolved in acetonitrile/water (1:1, v/v) to 10 mmol/L and further diluted with acetonitrile/water (1:1, v/v) to 100 µmol/L for use.
# The other Example compounds and the Reference Example 5 compound to Reference Example 7 compound were each dissolved in DMSO to 10 mmol/L and further diluted with acetonitrile to 100 µmol/L for use, except for the following compounds.
# The compounds of Examples 52, 95, 96, 117, and 130 (EX 52, EX 95, EX 96, EX 117, and EX 130) were dissolved in acetonitrile/water (8:2, v/v) to 10 mmol/L and further diluted with acetonitrile to 100 µmol/L for use.
# The compound of Example 97 (EX 97) was dissolved in acetonitrile/water (8:2, v/v) to 10 mmol/L and further diluted with acetonitrile/water (8:2, v/v) to 100 µmol/L for use.
# The compounds of Examples 15 and 116 (EX 15 and EX 116) were dissolved in DMSO to 1 mmol/L and further diluted with acetonitrile to 100 µmol/L for use.
# These evaluation compound solutions were prepared at the time of use.
# The reaction was conducted by preparing each reaction solution such that the final concentration of each component was as follows. The test was conducted in duplicate.
# For the compounds of Examples 1 to 8, 10 to 19, 26 to 27, 37, 50, 87 to 89, 91, 116, 121, 123, 150, and 151 (EX 1 to EX 8, EX 10 to EX 19, EX 26 to EX 27, EX 37, EX 50, EX 87 to EX 89, EX 91, EX 116, EX 121, EX 123, EX 150, and EX 151), and the compounds of Reference Examples 5 to 7 (REX 5 to REX 7), the reaction solution without the evaluation compound (198 µl) was pre-incubated at 37°C for 3 minutes, and then each of the evaluation compound solutions (2 µl) was added and stirred; thereafter, the reaction was started at 37°C. At 0 minutes or 60 minutes after the start of the reaction, the reaction was stopped by adding and stirring a reaction stop solution (1000 µl) composed of acetonitrile/isopropanol (4:1, v/v) containing internal standard substances. However, the 0-minute reaction sample (198 µl) was prepared by adding the evaluation compound (2 µl) after adding the reaction stop solution (1000 µl). The samples after stopping the reaction were used as the measurement samples. Calibration curve samples with the same composition were prepared (final concentrations of the evaluation compounds and brexpiprazole: 0.01, 0.1, and 1 µmol/L, with the proviso that for the evaluation compounds only, the 0-minute reaction samples were also used as calibration curve samples for 1 µmol/L).
# For the compounds of Examples 24 to 25, 28 to 29, 32 to 36, 40 to 49, 51 to 60, 62 to 64, 66 to 77, 80 to 86, 90, 92 to 111, 113, 115, 117 to 120, 122, 124 to 130, 132 to 147, and 152 to 160 (EX 24 to EX 25, EX 28 to EX 29, EX 32 to EX 36, EX 40 to EX 49, EX 51 to EX 60, EX 62 to EX 64, EX 66 to EX 77, EX 80 to EX 86, EX 90, EX 92 to EX 111, EX 113, EX 115, EX 117 to EX 120, EX 122, EX 124 to EX 130, EX 132 to EX 147, and EX 152 to EX 160), the reaction solution without the evaluation compound (148.5 µl) was pre-incubated at 37°C for 3 minutes, and then each of the evaluation compound solutions (1.5 µl) was added and stirred; thereafter, the reaction was started at 37°C. At 0 minutes or 60 minutes after the start of the reaction, the reaction was stopped by adding and stirring a reaction stop solution (600 µl) composed of acetonitrile/isopropanol (4:1, v/v) containing internal standard substances. However, the 0-minute reaction sample (148.5 µl) was prepared by adding the evaluation compound (1.5 µl) after adding the reaction stop solution (600 µl). The samples after stopping the reaction were used as the measurement samples. […]
Concentration of brexpiprazole formed [nM],Concentration of evaluation compound decreased [nM],Compound
0,60,COCCOCOCCCCOP(=O)([O-])OC[N+]1(CCCCOc2ccc3ccc(=O)[nH]c3c2)CCN(c2cccc3sccc23)CC1 [EX 53]
0,140,COCC1CCC(COP(=O)([O-])OC[N+]2(CCCCOc3ccc4ccc(=O)[nH]c4c3)CCN(c3cccc4sccc34)CC2)CC1 (centres unmarked) [EX 54]
0,70,CC1(C)OCC(COP(=O)([O-])OC[N+]2(CCCCOc3ccc4ccc(=O)[nH]c4c3)CCN(c3cccc4sccc34)CC2)CO1 [EX 55]
0,40,COCC(COC)OP(=O)([O-])OC[N+]1(CCCCOc2ccc3ccc(=O)[nH]c3c2)CCN(c2cccc3sccc23)CC1 [EX 56]
0,90,O=C(OCCCCCCOP(=O)([O-])OC[N+]1(CCCCOc2ccc3ccc(=O)[nH]c3c2)CCN(c2cccc3sccc23)CC1)c1ccccc1 [EX 57]
0,40,COc1ccc(C(=O)OCCCCCCOP(=O)([O-])OC[N+]2(CCCCOc3ccc4ccc(=O)[nH]c4c3)CCN(c3cccc4sccc34)CC2)cc1 [EX 58]
0,50,Cc1cccc(C(=O)OCCCCCCOP(=O)([O-])OC[N+]2(CCCCOc3ccc4ccc(=O)[nH]c4c3)CCN(c3cccc4sccc34)CC2)n1 [EX 59]
0,180,O=c1ccc2ccc(OCCCC[N+]3(COP(=O)([O-])OCCCCBr)CCN(c4cccc5sccc45)CC3)cc2[nH]1 [EX 62]
0,20,O=c1ccc2ccc(OCCCC[N+]3(COP(=O)([O-])OCC#CCCl)CCN(c4cccc5sccc45)CC3)cc2[nH]1 [EX 63]
0,30,O=c1ccc2ccc(OCCCC[N+]3(COP(=O)([O-])OCCCCCCCBr)CCN(c4cccc5sccc45)CC3)cc2[nH]1 [EX 64]
0,170,CSCCCOP(=O)([O-])OC[N+]1(CCCCOc2ccc3ccc(=O)[nH]c3c2)CCN(c2cccc3sccc23)CC1 [EX 66]
0,90,CC1(C)OCC(C(=O)OCOP(=O)([O-])OC[N+]2(CCCCOc3ccc4ccc(=O)[nH]c4c3)CCN(c3cccc4sccc34)CC2)CO1 [EX 67]
0,-10,CC(C)(C)OC(=O)CCCC(=O)OCOP(=O)([O-])OC[N+]1(CCCCOc2ccc3ccc(=O)[nH]c3c2)CCN(c2cccc3sccc23)CC1 [EX 69]
0,0,O=C(O)CCCC(=O)OCOP(=O)([O-])OC[N+]1(CCCCOc2ccc3ccc(=O)[nH]c3c2)CCN(c2cccc3sccc23)CC1 [EX 70]
0,100,CC(C)(CC(=O)O)CC(=O)OCOP(=O)([O-])OC[N+]1(CCCCOc2ccc3ccc(=O)[nH]c3c2)CCN(c2cccc3sccc23)CC1 [EX 71]
0,150,COc1ccc(COC(=O)CC(C)(C)CC(=O)OCOP(=O)([O-])OC[N+]2(CCCCOc3ccc4ccc(=O)[nH]c4c3)CCN(c3cccc4sccc34)CC2)cc1 [EX 72]
0,130,CC(C)NC(=O)CCCC(=O)OCOP(=O)([O-])OC[N+]1(CCCCOc2ccc3ccc(=O)[nH]c3c2)CCN(c2cccc3sccc23)CC1 [EX 73]
0,50,CC1(C)OCC(NC(=O)CCCC(=O)OCOP(=O)([O-])OC[N+]2(CCCCOc3ccc4ccc(=O)[nH]c4c3)CCN(c3cccc4sccc34)CC2)CO1 [EX 74]
0,70,CC1(C)OCC(COC(=O)CCCCC(=O)OCOP(=O)([O-])OC[N+]2(CCCCOc3ccc4ccc(=O)[nH]c4c3)CCN(c3cccc4sccc34)CC2)CO1 [EX 75]
0,0,CC(C)NC(=O)CCCCCCCCC(=O)OCOP(=O)([O-])OC[N+]1(CCCCOc2ccc3ccc(=O)[nH]c3c2)CCN(c2cccc3sccc23)CC1 [EX 76]
0,110,COCCOC(=O)CCCCCCCCCCC(=O)OCOP(=O)([O-])OC[N+]1(CCCCOc2ccc3ccc(=O)[nH]c3c2)CCN(c2cccc3sccc23)CC1 [EX 77]
0,170,CC(=O)Oc1ccccc1C(=O)OCOP(=O)([O-])OC[N+]1(CCCCOc2ccc3ccc(=O)[nH]c3c2)CCN(c2cccc3sccc23)CC1 [EX 80]
0,-30,Cc1ncccc1C(=O)OCOP(=O)([O-])OC[N+]1(CCCCOc2ccc3ccc(=O)[nH]c3c2)CCN(c2cccc3sccc23)CC1 [EX 81]
0,70,COC(=O)[C@H](COP(=O)([O-])OC[N+]1(CCCCOc2ccc3ccc(=O)[nH]c3c2)CCN(c2cccc3sccc23)CC1)NC(=O)OC(C)(C)C [EX 83]
0,10,O=c1ccc2ccc(OCCCC[N+]3(COP(=O)([O-])OCCCOc4ccccc4)CCN(c4cccc5sccc45)CC3)cc2[nH]1 [EX 84]
0,40,O=C(OCCCCCCOP(=O)([O-])OC[N+]1(CCCCOc2ccc3ccc(=O)[nH]c3c2)CCN(c2cccc3sccc23)CC1)c1ccc([N+](=O)[O-])cc1 [EX 85]
0,50,O=c1ccc2ccc(OCCCC[N+]3(COP(=O)([O-])OC[C@H]4CC[C@H](CO)CC4)CCN(c4cccc5sccc45)CC3)cc2[nH]1 [EX 86]
0,-10,CCCOP(=O)([O-])OC[N+]1(CCCCOc2ccc3ccc(=O)[nH]c3c2)CCN(c2cccc3sccc23)CC1 [EX 88]
0,-70,CCCCOP(=O)([O-])OC[N+]1(CCCCOc2ccc3ccc(=O)[nH]c3c2)CCN(c2cccc3sccc23)CC1 [EX 89]
0,-30,CC(C)COP(=O)([O-])OC[N+]1(CCCCOc2ccc3ccc(=O)[nH]c3c2)CCN(c2cccc3sccc23)CC1 [EX 90]

Compound,Concentration of brexpiprazole formed [nM],Concentration of evaluation compound decreased [nM]
COP(=O)([O-])OC[N+]1(CCCCOc2ccc3ccc(=O)[nH]c3c2)CCN(c2cccc3sccc23)CC1 [EX 87],0,0
